Test results from US7129073B2, “Regulation of neuronal function through metabotropic glutamate receptor signaling pathways” (The Rockefeller University, priority 2001, dated 2006).

Tests used:
[1] = test system: Ser137 of DARPP-32 (CK1 site); experiment: DARPP-32 phospho-Ser137 immunoblot in neostriatal slices; type: cell-based, mouse
Procedure: (§1) Neostriatal slices were prepared from male C57/BL6 mice (6–8 weeks old) in accordance with methods known in the art (Nishi, A. et al. 1997, J. Neurosci. 17:8147–8155). Slices were treated with a drug. After drug treatment, slices were immediately frozen in liquid nitrogen, and stored at −80° C. until assayed.
(§2) Frozen slices were sonicated in hot homogenization buffer containing 1% SDS and 50 mM NaF, and samples were boiled for 10 minutes. SDS-PAGE sample buffer was then added and samples were boiled for 5 minutes. Samples (approximately 120 μg of total protein) were separated by SDS-PAGE (10% polyacrylamide) and then transferred to nitrocellulose. In most studies, immunoblots were first probed with anti-phospho-Ser137 DARPP-32 antibody. The blots were then stripped and probed with anti-phospho-Thr75 DARPP-32 antibody. Blots were stripped again and probed with anti-total DARPP-32 antibody. […] Chemiluminescence was detected by autoradiography and bands were quantified by analysis of scanned images using NIH IMAGE 1.52 software. Data were statistically analyzed by Student's t test in Microsoft EXCEL™ software as indicated.
(§3) Neostriatal slices were prepared from male C57/BL6 mice (6–8 weeks old) as disclosed (22). Slices were treated with drugs as specified in the text and figure legends. After drug treatment, slices were immediately frozen in liquid nitrogen, and stored at −80° C. until assayed.
(§4) Frozen slices were sonicated in hot homogenization buffer containing 1% SDS and 50 mM NaF, and samples were boiled for 10 min. SDS-PAGE sample buffer was then added and samples were boiled for 5 min. Samples (approximately 120 μg protein) were separated by SDS-PAGE (10% polyacrylamide) and transferred to nitrocellulose. Immunoblots were first probed with antiphospho-Ser-137 DARPP-32 antibody. The blots were stripped and probed with anti-phosphoThr-75 DARPP-32 antibody. Blots were stripped again and probed with anti-total DARPP-32 antibody. Antibody binding was detected by enhanced chemiluminescence (ECL) using X-ray film, and images were analyzed by laser scanning densitometry using NIH Image 1.52 software. Data were statistically analyzed by Student's t-test using Microsoft EXCEL™ software as indicated.

[2] = test system: Thr75 of DARPP-32 (Cdk5 site); experiment: DARPP-32 phospho-Thr75 immunoblot in neostriatal slices; type: cell-based, mouse
Procedure: as §1, §2, §3, §4

HA-tagged CK1ε = experiment: kinase activity of HA-CK1ε immunoprecipitated from transfected N2a cells, DARPP-32 as substrate; type: cell-based
Procedure: Neuroblastoma N2a cells were cultured in DMEM containing 5% fetal bovine serum (FBS) to 50–60% confluency. Four micrograms of the expression plasmid for HA-CK1ε were transfected into N2a cells in 100 mm dishes using FuGENE™ 6. Twenty-four hours after transfection, cells were incubated in phosphate-buffered Krebs-Henseleit solution (Sigma) for 10 minutes at room temperature. Cells were then incubated with or without CKI inhibitor for 30 minutes before treating with the group I mGluR agonist (S)-3,5-DHPG (100 μM) for 2 minutes. Cells were then lysed in one ml of lysis buffer containing 1% Nonidet P-40 (NP-40), 150 mM NaCl, 0.1% SDS, 50 mM Tris (pH 8.0), 5 mM Na3VO4, 20 mM NaF, 20 mM β-glycerol-phosphate and protease inhibitors. Lysates were centrifuged at 10,000 g and supernatants were used for immunoprecipitation and kinase assay.
For immunoprecipitation of CKI from N2a cells, lysates (1 mg of total protein) were pre-cleared with 5 μl of mouse IgG and 50 μl of protein A agarose for 30 minutes. Five μl of anti-HA antibody were added and samples were incubated for 1 hour at 4° C. Five μl of anti-mouse rabbit IgG and 50 μl of protein A agarose were then added for 45 minutes. Immuno-complexes were washed three times in lysis buffer, two times in kinase buffer (30 mM Hepes (pH 7.5), 7 mM MgCl2, 0.5 mM DTT). CKI assays were performed in a 30 μl assay volume with 2 μg of purified DARPP-32, 500 μM ATP and 5 μCi γ-^32P-ATP. Samples were incubated at 30° C. for 20 minutes, reactions were stopped by addition of SDS-sample buffer, and samples were boiled for 5 minutes. Samples were separated by SDS-PAGE (12% polyacrylamide). SDS-PAGE gels were dried and exposed to Kodak film for autoradiography. Bands were quantified by analysis using a Molecular Dynamics PhosphorImager.
Neuroblastoma N2a cells were cultured to 50–60% confluence in DMEM containing 5% fetal bovine serum. Four μg of the expression plasmid for HA-CK1ε or myc-MM2-CK1ε was transfected into N2a cells in 100 mm dishes using FuGENE6™. Twenty-four hours after transfection, cells were incubated at room temperature in phosphate-buffered Kreb's-Henseleit solution (Sigma) for 10 min and then with or without inhibitors for 30 min before treating with (S)-3,5-DHPG, for 2 min. Cells were then lysed in 1 ml of radio-immunoprecipitation (RIPA) buffer containing 1% NP-40, 150 mM NaCl, 0.1% SDS, 50 mM Tris, pH 8.0, 5 mM Na3VO4, 20 mM NaF, 20 mM β-glycerol-phosphate and protease inhibitors. Lysates were centrifuged at 10,000 g, and supernatants were used for immunoprecipitation and kinase assay.
For immunoprecipitation of CK1ε from N2a cells, lysates (1 mg of total protein) were precleared with 5 μl of mouse IgG (ICN) and 50 μl of protein A agarose for 30 min. Five μl (approximately 2 μg) of anti-HA or anti-myc antibody was added and samples were incubated for 1 h at 4° C. Five μl of anti-mouse rabbit IgG and 50 μl of protein A agarose were then added for 45 min. Immuno-complexes were washed 3 times in lysis buffer and 2 times in kinase buffer (30 mM Hepes, pH 7.5, 7 mM MgCl2, 0.5 mM DTT).
CK1 assays were performed in a 30 μl assay volume with 2 μg of purified DARPP-32, 500 μM ATP and 5 μCi γ-^32P-ATP. Reactions were started by addition of the ATP. Samples were incubated at 30° C. for 10 min and reactions were stopped by addition of SDS-sample buffer and boiled for 5 min. Samples were separated by SDS-PAGE (12% polyacrylamide). SDS-PAGE gels were dried and exposed to Kodak film for autoradiography. Results were quantified using a Molecular Dynamics PHOSPHORIMAGER™. Immunoprecipitation and assay of Cdk5 were performed as disclosed (20).

[3] = 50 μM CKI-7, 30 min before DHPG 2 min
[4] = CKI-7 100 to 300 μM, 30 min before DHPG 2 min
[5] = DHPG 100 μM, group I mGluR activation
[6] = slices treated with drug alone: DHPG 100 μM, ionomycin 2 μM

Row | Compound | effect on basal or DHPG-stimulated DARPP-32 phosphorylation at Ser137 [1, 3] | effect on basal and DHPG-stimulated DARPP-32 phosphorylation at Ser137 [1, 4] | effect on basal or DHPG-stimulated DARPP-32 phosphorylation at Thr75 [2, 3] | effect on basal and DHPG-stimulated DARPP-32 phosphorylation at Thr75 [2, 4] | effect of pre-incubation on the ability of DHPG to increase CK1ε activity (HA-tagged CK1ε; 30 min before DHPG 100 μM 2 min, CKI-7 100 μM, L-AP3 100 μM, U73122 10 μM, BAPTA/AM 20 μM, cyclosporin A 1 μM) | increase in phosphorylation of Ser137 [1, 5] | time of peak level of phosphorylation of Ser137 ([1]; DHPG 100 μM, back to basal level by 5 minutes) [min] | effect on phosphorylation of Ser137 in DARPP-32 [1, 6] | increase in phosphorylation of Thr75 [2, 5] | effect on phosphorylation of Thr75 in DARPP-32 [2, 6] | effect on CK1ε activity (HA-tagged CK1ε; DHPG 100 μM for 2 min) | increase in CKI activity compared to the basal level (HA-tagged CK1ε; DHPG 100 μM for 2 minutes)
1 | NCCNS(=O)(=O)c1ccc(Cl)c2ccncc12 [CKI-7] | little effect | dose-dependent decreases | little effect | dose-dependent decreases | blocked | – | – | – | – | – | – | –
2 | N[C@H](C(=O)O)c1cc(O)cc(O)c1 [DHPG, (S)-3,5-Dihydroxyphenylglycine] | – | – | – | – | – | 2–3 fold | 2 | rapid but transient increase | 2–3 fold | rapid but transient increase | increase | approximately 2 fold
